US11266616B2, “Compositions and methods for inhibiting kinase activity” (BRANDEIS UNIVERSITY, priority 2016, dated 2022)
“Also recorded” adds a separate entry of the source. Like-named read-outs stand apart in the source and are kept apart here.

Tests used:
[1] = Stability of PS48 at very high concentrations; assay type: physicochemical
[2] = target: T1, dephosphorylated Aurora A kinase (Homo sapiens, UniProt O14965); assay: Isothermal titration calorimetry (ITC) binding to dephosphorylated Aurora A kinase
T1 construct: Codon-optimized Aurora A^122-403 in pET28a and untagged λPP in T7-7 plasmid were co-transformed in BL21(DE3) cells; inferred from pET28a and the NiNTA column) (cleaved yes); made in house; host or cells: E. coli BL21(DE3), co-expressed with lambda protein phosphatase
T1 sequence (O14965 122-403): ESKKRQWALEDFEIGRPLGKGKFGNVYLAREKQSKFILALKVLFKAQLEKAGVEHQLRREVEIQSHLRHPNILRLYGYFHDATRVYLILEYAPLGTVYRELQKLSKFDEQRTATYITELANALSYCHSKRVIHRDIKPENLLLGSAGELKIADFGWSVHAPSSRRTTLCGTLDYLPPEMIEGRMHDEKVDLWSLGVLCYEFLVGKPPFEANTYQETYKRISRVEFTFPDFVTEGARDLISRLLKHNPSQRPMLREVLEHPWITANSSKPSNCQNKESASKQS
Description: Titrations were carried out using Nano ITC isothermal titration calorimeter (TA Instruments) and analyzed via the NanoAnalyze software using the independent fit model. Injectant was added in 1 μl volume, every 180 s, with a constant stirring speed at 350 rpm and at 25° C. Prior to ITC titration, both protein and TPX2 or monobody were dialyzed/resuspended in ITC buffer (20 mM TrisHCl, 200 mM NaCl, 3% (vol/vol) glycerol, 1 mM TCEP, pH 7.50).

HeLa cells [3] = assay: HeLa cell viability with PS48; assay type: cell-based, human; conditions: FIG. 39
[4] = target: T2, TPX2 binding site of Aurora A kinase (Homo sapiens, UniProt O14965); assay: NMR titration (1H-15N HSQC) of TPX2, Aurora A and PS48; conditions: FIGS. 27A-27C
T2 construct: Codon-optimized Aurora A^122-403 in pET28a and untagged λPP in T7-7 plasmid were co-transformed in BL21(DE3) cells; inferred from pET28a and the NiNTA column) (cleaved yes); made in house; host or cells: E. coli BL21(DE3) (Aurora A); TPX2 not described
T2 sequence (O14965 122-403): T1 sequence (O14965 122-403)
Description: FIGS. 27A-27C is a set of plots showing results of NMR titration showing that PS48 binds to the TPX2 binding site of Aurora A kinase. FIG. 27A is a plot showing ^1H-^15N heteronuclear single quantum coherence (HSQC) spectra of selected titration points (250 μM TPX2, 250 μM TPX2+100 μM Aurora A, and 250 μM TPX2+100 μM Aurora A+1.5 mM PS48). A magnified view showing separation of peaks is indicated by an arrow. FIG. 27B is a plot showing changes in chemical shift (Δδ) at 200 μM TPX2 and varying concentrations of Aurora A. FIG. 27C is a plot showing changes in chemical shift (Δδ) at 200 μM TPX2 and 100 μM Aurora A and varying concentrations of PS48.

[5] = target: T3, ATP-binding site of Aurora A kinase (Homo sapiens, UniProt O14965); assay: TNP-ATP fluorescence titration of dephosphorylated Aurora A kinase with or without PS48; conditions: FIGS. 24-26
T3 construct: Codon-optimized Aurora A^122-403 in pET28a and untagged λPP in T7-7 plasmid were co-transformed in BL21(DE3) cells; inferred from pET28a and the NiNTA column) (cleaved yes); made in house; host or cells: E. coli BL21(DE3), co-expressed with lambda protein phosphatase
T3 sequence (O14965 122-403): T1 sequence (O14965 122-403)
Description: TNP-ATP is excited at a wavelength of 479 nm and fluoresces at 500-600 nm. FIG. 26B is a plot showing an emission spectrum of TNP-ATP. FIG. 26C is a plot showing fluorescence spectroscopy of dephosphorylated Aurora A kinase incubated with varying amounts of TNP-ATP. FIG. 26D is a plot showing fluorescence spectroscopy of dephosphorylated Aurora A kinase and PS48 incubated with varying amounts of TNP-ATP. FIG. 26E is a plot showing fluorescence intensities measured during titration of TNP-ATP in the Aurora A kinase and PS48 sample and Aurora A kinase only sample. The dissociation constant of TNP-ATP binding to Aurora A kinase in the absence and presence of PS48 is shown at the bottom of FIG. 26E.

HeLa cells [6] = assay: Cell imaging of synchronized HeLa cells treated with PS48 (Aurora A localization, mitotic progression); assay type: cell-based, human
Source text: FIG. 30 is a schematic showing a summary of a protocol used for cell synchronization experiments described herein to visualize effects of PS48 on TPX2 and Aurora A interaction in vivo.
The physiological importance of the Aurora A-TPX2 interaction was then investigated through experiments using PS48 to disrupt the Aurora A-TPX2 interaction in vivo. As described herein, during the transition to mitosis, Aurora A kinase is known to localize to the centrosomes and the spindle, with levels and activity of Aurora A kinase peaking during this point. TPX2 activates Aurora A kinase and targets Aurora A kinase to the spindle during mitosis. Thus, to observe effects of disruption of the Aurora A-TPX2 interaction on the biological in vivo activities of Aurora A kinase, cells in the experiment needed to be synchronized. The live cell imaging experiments to monitor Aurora A kinase and TPX2 in vivo interaction herein were performed using HeLa cells; however, HEK293 cells may also be used (FIGS. 33-35).
To monitor mitotic progression over time with fine resolution, in addition to staining DNA, phosphorylated histone H3 (“H3_P”) was also stained to monitor levels of H3_P in cells during live cell imaging (FIG. 31). Phosphorylation of Ser10 of histone H3 is considered to be a temporal marker of mitotic progression. […]

stability of PS48 [1]: not stable
Kd ([2]; Aurora A saturated with danusertib, FIGS. 3C-3D, read-out: Kd of PS48 binding to dephosphorylated Aurora A kinase): ~85 µM
Kd ([2]; ITC, FIG. 3B, read-out: Kd of binding of PS48 to Aurora A kinase): ~46 µM
SMILES: O=C(O)/C=C(/CCc1ccc(Cl)cc1)c1ccccc1 [PS48]
HeLa cell viability (HeLa cells [3]): PS48-dose dependent; also recorded: decreased cell viability
binding site of PS48 on Aurora A kinase [4]: bound to the TPX2 binding site of Aurora A kinase
effect of PS48 on the ATP binding site of Aurora A kinase (TNP-ATP binding) [5]: does not affect binding of TNP-ATP; also recorded: does not bind to the ATP binding site
localization of Aurora A to the spindle during mitosis (HeLa cells [6]; HeLa cells treated with PS48, FIGS. 36-37): not observed at the spindles
progression of HeLa cells through mitosis (HeLa cells [6]; presence of PS48 vs DMSO, FIG. 38): prolonged
